The values that follow come from article PMC7345637, “Characterization of Synthetic Tf2 as a NaV1.3 Selective Pharmacological Probe” (Biomedicines, 2020).

Assay [1] relates to C57BL/6J mice. The experiment in a line: Spontaneous pain behaviors after intraplantar injection, wildtype mice. The conditions noted are these: mouse, in vivo. The source says: For behavioral assessment, we used adult male wildtype or homozygous NaV1.9-deficient (NaV1.9^-/-) mice aged 6–8 weeks (~25g) on a C57BL/6J background. Homozygous Nav1.9 knockout mice on a C57BL/6J background were generated using CRISPR/Cas9 technology by the Queensland Facility for Advanced Genome Editing (The University of Queensland, Australia). In brief, two sgRNAs were designed to target exon 2 of the Scn11a gene. The deletion of exon 2 generated a frame shift mutation resulting in the introduction of stop codons in exon 3. […]
[…]. Mice were then placed individually into polyvinyl boxes (10 × 10 × 10 cm) and recorded by video for 20 min post-injection. The number of spontaneous pain behaviors, including licks, shakes, and flinches, were counted later by a blinded observer. Once spontaneous pain behavior had ceased, mechanical thresholds were assessed using an electronic von Frey apparatus (MouseMet Electronic von Frey, TopCat Metrology, Ely, UK), heat thresholds were assessed using the thermal probe test (MouseMet Thermal), and weight bearing was assessed using the Catwalk XT (Noldus Information Technology, Wageningen, The Netherlands) as previously described. To quantify weight bearing, the parameter ‘mean intensity of the 15 most intense pixels’ was used as a surrogate measure.
Data were plotted and analyzed by GraphPad Prism, versions 8.2.0 and 8.4.2. […]

Assay [2] deals with NaV1.1. To be noted: cited from earlier work. An excerpt:
(§1) Selective VGSC modulators remain useful tool compounds for delineating the contribution of particular isoforms to the excitability of neurons in both physiological and pathological states. […] In an attempt to rationally ...

For assay [3], the system named is NaV1.3. To be noted: cited from earlier work.
Source text: as §1

Assay [4] deals with mouse DRG neurons. Format: cell-based.
In assay [5] the test system is voltage-gated calcium channels (CaV). To be noted: cited from earlier work. An excerpt:
Tf2 caused Ca^2+ influx in both small and large mouse adult DRG neurons, which was surprising given NaV1.3 is only expressed at significant levels in embryonic sensory neurons or in adult neurons after axotomy. […] As DRG neurons in this study were isolated from all spinal levels, we cannot rule out the presence of these NaV1.3-expressing neurons in culture. However, given the definitive lack of proteomic evidenc ...

In the case of `O=C(Nc1ccc(S(=O)(=O)Nc2nccs2)cc1)C(c1ccccc1)c1ccccc1` [ICA-121431], the “effect on Tf2-induced spontaneous flinching” value in assay [1] is “no effect on Tf2-induced spontaneous flinching”. In addition, in assay [2], the “activity at NaV1.1” value was “off-target activity at NaV1.1”. For the same molecule, the NaV1.3 inhibition entry in assay [3] was “most potent NaV1.3 inhibitor described to the date”.

As for `NC1=N[C@H](O)[C@H]2[C@H]3O[C@]4(O)O[C@@H]([C@@H](O)[C@@]2(N1)[C@@H]4O)[C@]3(O)CO` [TTX, tetrodotoxin], the “block of Tf2-induced DRG neuron activation” value in assay [4] is “completely blocked”.

B1: kurtoxin: scorpion toxin from Parabuthus transvaalicus (protein, UniProt P58910 1-63, looked up)
Kurtoxin: KIDGYPVDYWNCKRICWYNNKYCNDLCKGLKADSGYCWGWTLSCYCQGLPDNARIKRSGRCRA
As for B1, in assay [5], the “modulation of voltage-gated calcium channels (CaV)” value is given as “modulate members of the family of voltage-gated calcium channels (CaV)”.
